Laboratory results published in patent US20240207410A1, “STABILIZED LIQUID COMPOSITIONS COMPRISING A LEVODOPA-TYROSINE CONJUGATE AND USES THEREOF” (NeuroDerm, Ltd., priority 2021, published 2024).
Where a SMILES comes first, the peptide text is derived from it. [ ]: non-standard residue; d: D form. Dopa = N[C@@H](Cc1ccc(O)c(O)c1)C(=O)O

Tests used:
[1] = Effect of various additives on stability of a 20% LD-Tyrosine-L-Arginine based formulation; format: physicochemical
[2] = PK of LD following 18-hr SC administration of LD-Tyr in a formulation comprising ethanol (Example 22); format: in vivo, domestic pig; conditions: for AUC(0-t) / Cmax / Tmax: pig, plasma, analyte LD-Tyr, 18-hr continuous SC, formulation comprising ethanol
Experimental: The objective of this study is to determine the pharmacokinetics (PK) of LD-Tyr following an 18-hr continuous subcutaneous (SC) administration in domestic pigs of a formulation comprising 30& LD-Tyr and ethanol. Table 53 provides the LD-Tyr formulation tested in this study.
Animals were dosed with 2700 or 5400 mg of LD-Tyr in the formulation of Table 53 in an 18-hr continuous subcutaneous administration in an infusion volume of 9 or 18 ml (9 mL×2 sites).

[3] = PK of high concentration LD-Tyr formulations comprising TRIS, 0.5% CD (Example 15B); format: in vivo, domestic pig; conditions: female, pig, plasma, sc, analyte LD-Tyr, 18-hour continuous SC infusion
Experimental: A series of PK and local-tox studies was completed in domestic pigs using several high concentration LD-Tyr formulations comprising 0.5% CD and varying amounts of TRIS, as detailed in Table 33, and dosing regimens, as detailed in Table 34. The PK profile of LD-Tyr as well as the LD resulting therefrom was determined following 18-hour continuous SC infusion to female domestic pigs. Each formulation was administered at one infusion site per animal using a Crono-ND infusion pump (Canè SpA Medical Technology, Rivoli, Italy) connected to an infusion set (Accu-chek®, FlexLink, Roche).
(§1) Blood samples for the determination of LD-Tyr and LD plasma levels were collected from the pigs at the following timepoints: […]

[4] = PK following bolus and 2-hr continuous SC administration of 30% LD-Tyr (Example 18); format: in vivo, domestic pig; conditions: pig; for AUC(0-t) / Cmax / Tmax: female, plasma, sc, analyte LD-Tyr, 30/1 % w/v, bolus and 2-hr continuous SC administration
Experimental: A series of PK and local-tox studies was completed in domestic pigs using several concentrations LD-Tyr formulations comprising varying amounts of CD, as detailed in Table 42, and dosing regimens, as detailed in Table 43. […] Each formulation was administered at one infusion site per animal using a Crono-ND infusion pump (Canè SpA Medical Technology, Rivoli, Italy) connected to an infusion set (Accu-chek®, FlexLink, Roche).
Blood samples for the determination of LD-Tyr and LD plasma levels were collected from the pigs at the following timepoints:
0 (pre-dose), 10 min (end of bolus), 15 min, 30 min, 45 min, 60 min, 75 min, 90 min, 120 min and 240 min following the beginning of the bolus administration.

Minipig/Göttingen = assay: Local safety, 24-hour SC infusion; format: in vivo
Experimental: (§2) In vivo non-clinical safety studies were conducted in both the rat and minipig. Additionally, an assessment of the local infusion site reaction of LD-Tyr was performed as part of a PK study in domestic pigs.

[5] = Maximal Tolerated Dose (MTD), bolus SC; format: in vivo; conditions: in vivo; study MTD Exp 001, Rat/SD, bolus SC, 90, 150, 300, 625 mg/kg
Experimental: as §2

Rat/SD = assay: Maximal Tolerated Dose (MTD), bolus SC; format: in vivo; conditions: study MTD Exp 001, Rat/SD, bolus SC, highest dose (625 mg/kg), males
Experimental: as §2

in vivo = conditions: female, pig, sc, analyte LD-Tyr
Experimental: A series of PK studies was completed in domestic pigs using several LD-Tyr formulations, as detailed in Table 26, and dosing regimens, as detailed in Table 27. The PK profile of LD-Tyr as well as the LD resulting therefrom was determined following 18-hour continuous SC infusion to female domestic pigs. Each formulation was administered at one infusion site per animal using a Crono-ND infusion pump (Canè SpA Medical Technology, Rivoli, Italy) connected to an infusion set (Accu-chek®, FlexLink, Roche).
as §1

Pig/domestic = assay: Local infusion site reaction as part of a PK study (ND 2-20-102); format: in vivo; conditions: study ND 2-20-102, 200 mg/mL at 9 mL (1800 mg/day)
Experimental: as §2

red blood cells (RBC) = assay: Blood/plasma ratio, partitioning into red blood cells, human blood ex vivo; format: in vitro ADME; conditions: human blood
[6] = PK of formulations with varying concentrations of LD-Tyr and CD (Example 16); format: in vivo, domestic pig; conditions: female, pig, plasma, sc, analyte LD-Tyr, 18-hour continuous SC infusion
Experimental: A series of PK and local site reaction studies was completed in domestic pigs using several concentrations LD-Tyr formulations comprising varying amounts of CD, as detailed in Table 37, and dosing regimens, as detailed in Table 38. The PK profile of LD-Tyr, as well as the LD resulting therefrom, was determined following 18-hour continuous SC infusion to female domestic pigs. Each formulation was administered at one infusion site per animal using a Crono-ND infusion pump (Canè SpA Medical Technology, Rivoli, Italy) connected to an infusion set (Accu-chek®, FlexLink, Roche).
as §1

[7] = 2700 mg, LD-Tyr/CD daily dose 2700/117 mg, n = 5
[8] = 5400 mg, LD-Tyr/CD daily dose 5400/234 mg, n = 3
[9] = LD-Tyr/CD 30/0.5 % w/v, daily dose 2775/37.5 mg, n = 2
[10] = LD-Tyr/CD 37/0.5 % w/v, daily dose 2640/30 mg, n = 3
[11] = LD-Tyr/CD 44/0.5 % w/v, daily dose 2700/45 mg, n = 1
[12] = bolus volume 0.7 mL, bolus dose 210/7 mg, daily dose 510/17 mg
[13] = bolus volume 1.2 mL, bolus dose 360/12 mg, daily dose 660/22 mg
[14] = bolus volume 1.7 mL, bolus dose 510/17 mg, daily dose 810/27 mg
[15] = 2640 mg/day, LD-Tyr/CD 44/1 % w/v, daily dose 2640/60 mg, n = 4
[16] = 2700 mg/day, LD-Tyr/CD 30/0.5 % w/v, daily dose 2700/45 mg, n = 5
[17] = 2700 mg/day, LD-Tyr/CD 30/[…] w/v, daily dose 2700/135 mg, n = 5

In the case of N[C@@H](Cc1ccc(O)c(O)c1)C(=O)N[C@@H](Cc1ccc(O)cc1)C(=O)O [LD-Tyr, levodopa-tyrosine (LD-Tyr) conjugate of the formula (II)] (H-[Dopa]-Tyr-OH), the “solubility of the LD-Tyr (rank order of cosolvents)” value [1] is reported as “DMA>Ethanol>PEG 300”, the dose proportionality ([2]; 2700 and 5400 mg, 18-hr continuous SC administration) is reported as “dose proportionality” and the AUC(0-t) [2, 7] is reported as 8210 ± 4120 ng·h/mL. It also gave a Cmax [2, 7] of 707 ± 283 ng/mL, a Tmax [2, 7] of 14 h and an AUC(0-t) [2, 8] of 21200 ± 8570 ng·h/mL. It also gave a Cmax [2, 8] of 1610 ± 902 ng/mL, a Tmax [2, 8] of 14 h and an AUC(0-t) [3, 9] of 4800 ng·h/mL. The Cmax [3, 9] was 445 ng/mL, the Tmax [3, 9] was 10 h and the AUC(0-t) [3, 10] was 5600 ng·h/mL. For the same compound, the Cmax [3, 10] was 491 ng/mL, the Tmax [3, 10] was 15 h and the AUC(0-t) [3, 11] was 534 ng·h/mL. It also gave a Cmax [3, 11] of 49.6 ng/mL, a Tmax [3, 11] of 2 h and an AUC(0-t) [4, 12] of 1180 ng·h/mL. The Cmax [4, 12] was 573 ng/mL, the Tmax [4, 12] was 1.3 h and the AUC(0-t) [4, 13] was 1630 ng·h/mL. For the same compound, the Cmax [4, 13] was 933 ng/mL, the Tmax [4, 13] was 0.9 h and the AUC(0-t) [4, 14] was 2430 ng·h/mL. For the same compound, the Cmax [4, 14] was 1350 ng/mL, the Tmax [4, 14] was 1.2 h and the “systemic exposure to LD versus bolus injection volume” value ([4]; in vivo) was “dose-proportional increase”. The “subchronic/chronic inflammation in the subcutis” value (Minipig/Göttingen; study 0NMR6, 120 mg/mL at 4.5 mL (540 mg/day)) was “minimal to mild”, the “tolerability (local effect, cutaneous ulcers)” value (“tolerability” below) (Minipig/Göttingen; study 0NMR6, 24-hour SC infusion, 120 mg/mL at 4.5 mL (540 mg/day)) was “well tolerated with no” and the “chronic inflammation in the subcutis” value (Minipig/Göttingen; study 0NMR10, 130 mg/mL at 6 mL (780 mg/day)) was “minimal to moderate”. The “tolerability” value (Minipig/Göttingen; study 0NMR10, 24-hour SC infusion, 130 mg/mL at 6 mL (780 mg/day)) was “well tolerated with no”, the “tolerability” value (Minipig/Göttingen; study E0515, 24-hour SC infusion, 440, 370, 300, and 250 mg/mL (2640, 2775, 2700, and 2250 mg/day)) was “well tolerated with no” and the MTD [5] was 300 mg/kg. For the same compound, the Mortality (Rat/SD) was “Mortality (1/4 males)”, the Tmax (in vivo) was 10.4 h and the “subacute inflammation in the subcutis” value (Pig/domestic) was “minimal to mild”. For the same compound, the RBC binding (red blood cells (RBC)) was “no RBC binding”, the KRBC/PL (red blood cells (RBC); all measured) was “below one” and the AUC(0-t) [6, 15] was 8130 ng·h/mL. The Cmax [6, 15] was 738 ng/mL, the Tmax [6, 15] was 11.6 h and the AUC(0-t) [6, 16] was 5450 ng·h/mL. For the same compound, the Cmax [6, 16] was 453 ng/mL, the Tmax [6, 16] was 8.8 h and the AUC(0-t) [6, 17] was 13500 ng·h/mL. For the same compound, the Cmax [6, 17] was 986 ng/mL and the Tmax [6, 17] was 12.4 h.
